Values of other authors, collected in patent US11058615B1, “Cosmetic dermal serum with skin rejuvenation properties” (Key Element LLC, priority 2018, dated 2021).

Assays:
[1] = tested on: hyperpigmentation; settings: hyperpigmentation caused by exposure to UVA and UVB
[2] = tested on: skin blemishes; settings: recent clinical studies (ncbi.nlm.nih.gov/pubmed/18492184)

O=C1O[C@H]([C@@H](O)CO)C([O-])=C1OP(=O)([O-])[O-].[Na+].[Na+].[Na+] [SAP, Sodium Ascorbyl Phosphate]
efficacy in helping to normalize skin tone [1]: excellent efficacy | efficacy to fight skin blemishes [2]: significant efficacy
